The subject of assay [1] is Human immunodeficiency virus 1. Put plainly: Inhibition of reverse transcriptase RTY18C mutant in HIV1 Z6gpt assessed as inhibition of ssDNA synthesis.
For assay [2], the target named is Human immunodeficiency virus type 1 reverse transcriptase (Human immunodeficiency virus 1) (UniProt Q72547). Conditions: 10 uM.
Description: Inhibition of reverse transcriptase assessed as decrease in ssDNA level in cell free virion HIV1 by NERT-based real-time PCR at 10 uM

Our source for the Activity and inhibition values is ChEMBL document CHEMBL1142190, “Development of a new methodology for screening of human immunodeficiency virus type 1 microbicides based on real-time PCR quantification” (Antimicrob Agents Chemother, 2007).

Usually inhibition stands for how much of the control response was suppressed. Higher therefore signals strong suppression.

Regarding `Cc1ccnc2c1NC(=O)c1cccnc1N2C1CC1`, the Activity in assay [1] was 256 µM. Further, in assay [2], the inhibition worked out at 75%.
